Measured values from US20130143886A1, “METHODS FOR PRESERVING AND/OR INCREASING RENAL FUNCTION USING XANTHINE OXIDOREDUCTASE INHIBITORS” (priority 2006, published 2013).

Columns and labels:
remnant kidney (RK) rats [1] = assay: Plasma uric acid in remnant kidney rats; type: in vivo, Male Wistar rats
Experimental: Male Wistar rats (295-340 g) were used to produce rats with remnant kidney (RK) as follows. […] Rats were then assigned to one of four treatment groups: Group 1, RK control rats (n=7); Group 2, RK+febuxostat (Fx) rats (n=8); Group 3, RK+oxonic acid (OA) rats (n=6); and Group 4, RK+OA+Fx (n=10). Oxonic acid (OA) (Sigma-Aldrich, St Louis Mo., USA), administered at 750 mg/kg body weight daily by oral gavage, was given starting the day after the ⅚ nephrectomy. Beginning immediately following the surgery, febuxostat was administered in drinking water at 30 mg/L (3-4 mg/kg/day), whereas the respective controls received only drinking water (with 3.5 mg/L of NaCl added to keep an equivalent salt concentration to the Fx-containing water). All groups were treated for four weeks. Body weight (beginning just before surgery) and food and water intakes were measured daily. Systolic blood pressure, measured in conscious rats by a tail cuff sphygmomanometer, and plasma uric acid (UA) levels were measured at just before surgery (namely, at baseline) and at the end of the four weeks. Proteinuria was measured at baseline and at the end of two and four weeks. A renal micropuncture procedure along with systemic blood pressure monitoring under pentobarbital anesthesia was performed at the end of four weeks followed by morphologic evaluation of the renal preglomerular microvasculature. Food and water intake were determined daily. Systolic blood pressure (SBP) was measured by a tail-cuff sphygmomanometer using an automated system (XBP-100; Kent Scientific Co, Torrington, Conn., USA) in conscious animals. […] Plasma uric acid was quantified using a commercial kit (Diagnostic Chemicals Ltd, Charlottetown, PEI, Canada). Proteinuria was determined by turbidimetry by the method of trichloroacetic acid as described in Henry R J et al., “Turbidimetric determination of proteins with sulfosalicylic and tricholoroacetic acids”, Proc Soc Exp Biol Med 92:748-751 (1956), the contents of which are herein incorporated by reference.

remnant kidney (RK) rats [2] = assay: Tubulointerstitial fibrosis quantification; type: in vivo, Male Wistar rats; details: febuxostat in both RK and RK+OA rats
Experimental: Male Wistar rats (295-340 g) were used to produce rats with remnant kidney (RK) as follows. […] Rats were then assigned to one of four treatment groups: Group 1, RK control rats (n=7); Group 2, RK+febuxostat (Fx) rats (n=8); Group 3, RK+oxonic acid (OA) rats (n=6); and Group 4, RK+OA+Fx (n=10). Oxonic acid (OA) (Sigma-Aldrich, St Louis Mo., USA), administered at 750 mg/kg body weight daily by oral gavage, was given starting the day after the ⅚ nephrectomy. […] Arteriolar morphology was assessed by indirect peroxidase immunostaining for alpha-smooth muscle actin (DAKO Corp, Carpinteria, Calif., USA). […] The degree of tubulointerstitial fibrosis was quantified in 10 non-crossed fields of cortex (100×) per biopsy. Slides were analyzed by light microscopy (Olympus BX51; Olympus American, Melville, N.Y., USA) and captured by a digital video camera (CoolSnap Pro; Media Cybernetics, Silver Spring, Md., USA). Pictures were processed on a computer and analyzed using Image Pro-Plus (version 5.0; Media Cybernetics, Silver Spring, Md., USA). Taking advantage of the capabilities of color recognition with this software, positive blue-stained areas (fibrosis) were selected and quantified in pixel units; glomeruli and vessels were previously excluded from the field. For each biopsy, the mean amount of positive blue-stained area was calculated by averaging the values from ten examined fields.

Structure (SMILES): Cc1nc(-c2ccc(OCC(C)C)c(C#N)c2)sc1C(=O)O [febuxostat, 2-[3-cyano-4-(2-methylpropoxy)phenyl]-4-methylthiazole-5-carboxylic acid]
- Plasma uric acid as % of the value measured in the RK control rats (remnant kidney (RK) rats [1]; RK rats receiving febuxostat, end of four weeks, difference not statistically significant): approximately 63%
- Plasma uric acid in OA-treated rats (in words) (remnant kidney (RK) rats [1]; febuxostat added to OA-treated RK rats): prevented the'rise of uric acid levels
- Tubulointerstitial (TI) fibrosis (in words) (remnant kidney (RK) rats [2]): significantly decreased
